Reference: patent publication US11096390B2, “Method of controlling weeds in a cultivation area of field corn” (SUMITOMO CHEMICAL COMPANY, LIMITED, priority 2019, dated 2021)

Key:
[1] = test system: field corn; assay: Pot test, soil spray after sowing: crop injury on field corn; format: in vivo, Zea mays var. indentata and/or Zea mays var. indurata
From the text: (§1) The evaluation of the herbicidal effect and crop injury is classified into 0 to 100, where the numeral “0” indicates no or little difference in the state of germination or growth of weeds or corn under test at the time of examination as comparison with untreated weeds or corn, respectively and the numeral “100” indicates the complete death of weeds or corn under test or the complete inhibition of their germination or growth of weeds or corn under test.
(§2) Three varieties of field corn, two varieties of popcorn, two varieties of sweet corn, two varieties of waxy corn, palmer amaranth, kochia and large crabgrass were sown to a pot filled with a soil. On the next day, a trifludimoxazin spray liquid (prepared by diluting an emuslfiable concentrate of trifludimoxazin with water) was uniformly sprayed onto the pot at the amount of 200 L per hectare so that the application rate of trifludimoxazin might be 50 g per hectare. 12 days after treatment, herbicidal effects on weeds and injury on corns were investigated. As a result, the herbicidal effect on each of the three weeds was 100.
as §2, with “Four” for “Three”, “sweet” for “sweet corn, two varieties of waxy”, “25” for “50”, “13” for “12”

[2] = test system: popcorn; assay: Pot test, soil spray after sowing: crop injury on popcorn; format: in vivo, Zea mays var. everta
From the text: as §1, §2
as §2, with “Four” for “Three”, “sweet” for “sweet corn, two varieties of waxy”, “25” for “50”, “13” for “12”

[3] = test system: sweet corn; assay: Pot test, soil spray after sowing: crop injury on sweet corn; format: in vivo, Zea mays var. saccharata
From the text: as §1, §2
as §2, with “Four” for “Three”, “sweet” for “sweet corn, two varieties of waxy”, “25” for “50”, “13” for “12”

[4] = test system: waxy corn; assay: Pot test, soil spray after sowing: crop injury on waxy corn; format: in vivo, Zea mays var. ceratina; settings: 50 g/ha, 12 days after treatment
From the text: as §1, §2

[5] = test system: palmer amaranth; assay: Pot test, soil spray after sowing: herbicidal effect on palmer amaranth; format: in vivo, Amaranthus palmeri
From the text: as §1, §2
(§3) Four varieties of field corn, two varieties of popcorn, two varieties of sweet corn, palmer amaranth, kochia and large crabgrass were sown to a pot filled with a soil. […]

[6] = test system: kochia; assay: Pot test, soil spray after sowing: herbicidal effect on kochia; format: in vivo, Kochia scoparia
From the text: as §1, §2, §3

[7] = test system: large crabgrass; assay: Pot test, soil spray after sowing: herbicidal effect on large crabgrass; format: in vivo, Digitaria sanguinalis
From the text: as §1, §2, §3

[8] = test system: palmer amaranth, waterhemp, kochia, common ragweed and marestail; assay: Example 1 pot test, spray two days after sowing: herbicidal effects on weeds; format: in vivo; settings: 25 or 50 g per hectare; applied two days after sowing; 21 days after the treatment
From the text: as §1
(§4) A pot is filled with a soil, and then field corn, popcorn, sweet corn, waxy corn, palmer amaranth, waterhemp, kochia, common ragweed and marestail are sown thereto. Two days later, trifludimoxazin spray liquid (prepared by diluting trifludimoxazin formulation (an aqueous suspension concentrate containing 500 g/L of trifludimoxazin) with water) is uniformly applied onto the pot using sprayer at the amount of 200 L per hectare so that the application rate of trifludimoxazin may be 25 or 50 g per hectare. 21 days after the treatment, herbicidal effects and injuries on various corns are investigated.

[9] = test system: field corn, popcorn, sweet corn, waxy corn; assay: Example 1 pot test, spray two days after sowing: injuries on various corns; format: in vivo, Zea mays; settings: 25 or 50 g per hectare; applied two days after sowing; 21 days after the treatment
From the text: as §1, §4

[10] = test system: palmer amaranth, waterhemp, kochia, common ragweed and marestail; assay: Example 2 pot test, spray the day before sowing corns: herbicidal effects on weeds; format: in vivo; settings: 25 or 50 g per hectare; applied on day of weed sowing, corns sown next day; 21 days after sowing corns
From the text: as §1
as §4, with “Palmer” for “field corn, popcorn, sweet corn, waxy corn, palmer”, “On the same day,” for “Two days later,”, “hectare. On the next day, field corn, popcorn, sweet corn, and waxy corn are sown.” for “hectare.”, “sowing corns,” for “the treatment,”

[11] = test system: field corn, popcorn, sweet corn, and waxy corn; assay: Example 2 pot test, spray the day before sowing corns: injuries on various corns; format: in vivo, Zea mays; settings: 25 or 50 g per hectare; applied the day before sowing corns; 21 days after sowing corns
From the text: as §1
as §4, with “Palmer” for “field corn, popcorn, sweet corn, waxy corn, palmer”, “On the same day,” for “Two days later,”, “hectare. On the next day, field corn, popcorn, sweet corn, and waxy corn are sown.” for “hectare.”, “sowing corns,” for “the treatment,”

[12] = 25 g per hectare, 13 days after treatment
[13] = 50 g per hectare, 12 days after treatment

## C#CCN1C(=O)C(F)(F)Oc2cc(F)c(-n3c(=O)n(C)c(=S)n(C)c3=O)cc21 [trifludimoxazin]
[1]; Field corn DKC5632, 25 g/ha, 13 days after treatment
  Injury score on corn (0 to 100): 0
[1]; Field corn DKC5632, 50 g/ha, 12 days after treatment
  Injury score on corn (0 to 100): 10
[1]; Field corn Koshu, 25 g/ha, 13 days after treatment
  Injury score on corn (0 to 100): 0
[1]; Field corn Koshu, 50 g/ha, 12 days after treatment
  Injury score on corn (0 to 100): 5
[1]; Field corn MAS40F, 25 g/ha, 13 days after treatment
  Injury score on corn (0 to 100): 5
[1]; Field corn Pioneer 2088, 25 g/ha, 13 days after treatment
  Injury score on corn (0 to 100): 0
[1]; Field corn Pioneer 2088, 50 g/ha, 12 days after treatment
  Injury score on corn (0 to 100): 5
[2]; Popcorn Maru-pop, 25 g/ha, 13 days after treatment
  Injury score on corn (0 to 100): 20
[2]; Popcorn Maru-pop, 50 g/ha, 12 days after treatment
  Injury score on corn (0 to 100): 50
[2]; Popcorn Yuki-pop, 25 g/ha, 13 days after treatment
  Injury score on corn (0 to 100): 20
[2]; Popcorn Yuki-pop, 50 g/ha, 12 days after treatment
  Injury score on corn (0 to 100): 40
[3]; Sweet corn Ohisama, 25 g/ha, 13 days after treatment
  Injury score on corn (0 to 100): 20
[3]; Sweet corn Ohisama, 50 g/ha, 12 days after treatment
  Injury score on corn (0 to 100): 40
[3]; Sweet corn Rancher 82, 25 g/ha, 13 days after treatment
  Injury score on corn (0 to 100): 30
[3]; Sweet corn Rancher 82, 50 g/ha, 12 days after treatment
  Injury score on corn (0 to 100): 30
[4]; Waxy corn Ki-mochi
  Injury score on corn (0 to 100): 30
[4]; Waxy corn Shiro-mochi
  Injury score on corn (0 to 100): 40
[5]; [12]
  herbicidal effect (0 to 100): 100
[5]; [13]
  herbicidal effect (0 to 100): 100
[6]; [12]
  herbicidal effect (0 to 100): 100
[6]; [13]
  herbicidal effect (0 to 100): 100
[7]; [12]
  herbicidal effect (0 to 100): 100
[7]; [13]
  herbicidal effect (0 to 100): 100
[8]
  herbicidal effects on all weeds: High herbicidal effects
[9]
  injury on field corn compared with popcorn, sweet corn and waxy corn: less than those on popcorn, sweet corn and waxy corn
[10]
  herbicidal effects on all weeds: High herbicidal effects
[11]
  injury on field corn compared with popcorn, sweet corn and waxy corn: less than those on popcorn, sweet corn and waxy corn
